Reference: PubChem BioAssay (NCI)
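Briefly, cells in 96-well plates were exposed to five compound concentrations for 48 h, and endpoints were estimated by linear interpolation. TGI is the concentration that stops growth completely.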

Key:
Assay in all cases: growth of human tumour cells (NCI), 48 h
NCI-H23 lung = test system: NCI-H23 lung
HOP-92 NSCLC = test system: HOP-92 NSCLC
SK-MEL-28 melanoma = test system: SK-MEL-28 melanoma
SK-MEL-2 melanoma = test system: SK-MEL-2 melanoma
HCC-2998 colon = test system: HCC-2998 colon
M19-MEL melanoma = test system: M19-MEL melanoma
MALME-3M melanoma = test system: MALME-3M melanoma
SNB-19 CNS = test system: SNB-19 CNS
SNB-75 CNS = test system: SNB-75 CNS
HCT-15 colon = test system: HCT-15 colon
OVCAR-3 ovarian = test system: OVCAR-3 ovarian
HCT-116 colon = test system: HCT-116 colon
DMS 273 small cell lung = test system: DMS 273 small cell lung
TK-10 renal = test system: TK-10 renal
UACC-62 melanoma = test system: UACC-62 melanoma
CAKI-1 renal = test system: CAKI-1 renal
UACC-257 melanoma = test system: UACC-257 melanoma
A549 NSCLC = test system: A549 NSCLC
RPMI-8226 leukemia = test system: RPMI-8226 leukemia
K-562 leukemia = test system: K-562 leukemia
U251 CNS = test system: U251 CNS
SR leukemia = test system: SR leukemia
SF-268 CNS = test system: SF-268 CNS
SF-539 CNS = test system: SF-539 CNS
OVCAR-5 ovarian = test system: OVCAR-5 ovarian
NCI-H226 lung = test system: NCI-H226 lung
786-0 renal = test system: 786-0 renal
UO-31 renal = test system: UO-31 renal
KM20L2 colon = test system: KM20L2 colon
DMS 114 small cell lung = test system: DMS 114 small cell lung
HL-60(TB) leukemia = test system: HL-60(TB) leukemia
DLD-1 colon = test system: DLD-1 colon
OVCAR-4 ovarian = test system: OVCAR-4 ovarian
LXFL 529 NSCLC = test system: LXFL 529 NSCLC
LOX IMVI melanoma = test system: LOX IMVI melanoma
SK-MEL-5 melanoma = test system: SK-MEL-5 melanoma
SN12C renal = test system: SN12C renal
ACHN renal = test system: ACHN renal
A498 renal = test system: A498 renal
MOLT-4 leukemia = test system: MOLT-4 leukemia
HT29 colon = test system: HT29 colon
SW-620 colon = test system: SW-620 colon
EKVX NSCLC = test system: EKVX NSCLC
NCI-H522 lung = test system: NCI-H522 lung
CCRF-CEM leukemia = test system: CCRF-CEM leukemia
SNB-78 CNS = test system: SNB-78 CNS
RXF 393 renal = test system: RXF 393 renal
M14 melanoma = test system: M14 melanoma
IGROV1 ovarian = test system: IGROV1 ovarian
SF-295 CNS = test system: SF-295 CNS
NCI-H460 lung = test system: NCI-H460 lung
OVCAR-8 ovarian = test system: OVCAR-8 ovarian
XF 498 CNS = test system: XF 498 CNS
COLO 205 colon = test system: COLO 205 colon
KM12 colon = test system: KM12 colon
HOP-62 NSCLC = test system: HOP-62 NSCLC
SK-OV-3 ovarian = test system: SK-OV-3 ovarian
HOP-18 NSCLC = test system: HOP-18 NSCLC
RXF-631 renal = test system: RXF-631 renal

Measured: TGI

CCOc1ccc(N=C2NC(=O)C(CC(=O)Nc3ccccc3[N+](=O)[O-])S2)cc1 (centres undefined)
not listed: COLO 205 colon | KM12 colon | HOP-62 NSCLC | SK-OV-3 ovarian | HOP-18 NSCLC | RXF-631 renal
> 100 µM: all other assays above

CC(=O)c1ccc(NC(=O)C(=O)C(C(=O)/C=C/c2ccccc2)C2OC(=O)c3ccccc32)cc1 (centres undefined)
not listed: OVCAR-3 ovarian | DMS 114 small cell lung
> 100 µM: all other assays above

COc1ccc(/C=C(\NC(=O)c2ccccc2)c2nc3ccccc3[nH]2)cc1OC
not listed: DMS 273 small cell lung
> 100 µM: all other assays above

O=C1c2ccccc2C(=O)C12CCc1ccccc12
not listed: SK-MEL-2 melanoma | SNB-19 CNS | HCT-116 colon | UACC-257 melanoma | RPMI-8226 leukemia | SR leukemia | SF-539 CNS | OVCAR-5 ovarian | NCI-H226 lung | SK-MEL-5 melanoma | A498 renal | NCI-H522 lung | KM12 colon
> 100 µM: all other assays above
